SMILES strings stand for the structures.

Assay [1] addresses T1, QcrB subunit of CIII2 (CIII2CIV2 supercomplex), AAA variant (Mycolicibacterium smegmatis, UniProt A0R052, F153A/M305A/M337A).
T1 construct: gene MSMEG_4263
The experiment in a line: biochemical.

In assay [2] the target is T2, QcrB subunit of CIII2 (CIII2CIV2 supercomplex) (Mycolicibacterium smegmatis, UniProt A0R052). The assay is described as follows: DMNQH2 oxidation:O2 reduction activity, Clark-type oxygen electrode. It is filed as biochemical. The arrangement: gene MSMEG_4263; intact purified CIII2CIV2 supercomplex, C-terminally FLAG-tagged on QcrB; with QcrA (Rieske), QcrC and CIV subunits of the CIII2CIV2 supercomplex.

The target of the next assay is T3, cytochrome bd-I (Mycolicibacterium smegmatis, UniProt A0QXA8).
T3 construct: gene MSMEG_3233; purified cytochrome bd-I (cydAB, Strep-tagged on CydB) in DDM; with CydB
T3 sequence (A0QXA8 1-487): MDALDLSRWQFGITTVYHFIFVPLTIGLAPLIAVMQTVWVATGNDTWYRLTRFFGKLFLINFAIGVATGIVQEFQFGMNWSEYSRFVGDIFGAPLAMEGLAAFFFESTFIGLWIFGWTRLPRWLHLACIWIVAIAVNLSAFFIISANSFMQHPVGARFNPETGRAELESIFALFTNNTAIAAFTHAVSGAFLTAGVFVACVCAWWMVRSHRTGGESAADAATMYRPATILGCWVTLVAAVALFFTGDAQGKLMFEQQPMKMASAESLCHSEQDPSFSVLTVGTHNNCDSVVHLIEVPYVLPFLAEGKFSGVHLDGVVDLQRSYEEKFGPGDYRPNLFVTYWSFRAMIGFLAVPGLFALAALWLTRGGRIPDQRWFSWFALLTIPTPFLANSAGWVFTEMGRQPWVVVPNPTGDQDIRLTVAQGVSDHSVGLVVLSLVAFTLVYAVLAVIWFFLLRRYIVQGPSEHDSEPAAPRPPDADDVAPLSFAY
T3 sequence (A0QXA7 1-350 partner): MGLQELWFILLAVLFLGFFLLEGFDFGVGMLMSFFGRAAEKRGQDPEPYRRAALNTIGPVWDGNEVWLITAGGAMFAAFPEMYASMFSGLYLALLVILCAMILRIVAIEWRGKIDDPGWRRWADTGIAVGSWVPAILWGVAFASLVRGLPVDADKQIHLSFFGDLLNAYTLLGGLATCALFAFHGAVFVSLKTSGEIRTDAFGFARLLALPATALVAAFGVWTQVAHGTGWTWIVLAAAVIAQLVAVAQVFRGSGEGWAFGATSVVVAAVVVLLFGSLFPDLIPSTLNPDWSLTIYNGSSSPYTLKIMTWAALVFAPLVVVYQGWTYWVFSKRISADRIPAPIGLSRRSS
The assay is described as follows: O2 reduction rate, Clark-type electrode; turnover at […]. It is filed as biochemical.

In assay [3] the target is T2, QcrB subunit of CIII2 (CIII2CIV2 supercomplex). The assay is described as follows: O2 reduction rate, Clark-type oxygen electrode; turnover […] s^−[…] at […]. It is filed as biochemical. The arrangement: gene MSMEG_4263; intact purified CIII2CIV2 supercomplex, C-terminally FLAG-tagged on QcrB; with QcrA (Rieske), QcrC and CIV subunits of the CIII2CIV2 supercomplex.
The target is the same in assay [4]. The assay is described as follows: cryo-EM structure, […] Å; DCQ modeled in oxidized state at […] occupancy (shared with MQ). It is filed as binding. Also noted: gene MSMEG_4263; intact CIII2CIV2 supercomplex purified in GDN, C-terminally FLAG-tagged on QcrB; with QcrA (Rieske), QcrC and CIV subunits of the CIII2CIV2 supercomplex.

In the case of `CCCCCCCCCCc1c(C)c(O)c(OC)c(OC)c1O` [DCQH2], the values for the IC50 in assay [1] and in assay [2] were roughly 130 µM and roughly 70 µM, respectively.
On to `Cc1c(C)c(O)c2ccccc2c1O` [DMNQH2], for which the “O2 reduction rate, Clark-type electrode; turnover at 300 μM” value at cytochrome bd-I was 18 ± 1 s⁻¹. The “O2 reduction rate, Clark-type oxygen electrode; turnover 80 ± 10 s^-1 at 100 μM” value in assay [3] stood at 80 ± 10 s⁻¹.
In the case of `CCCCCCCCCCC1=C(C)C(=O)C(OC)=C(OC)C1=O` [DCQ, decylubiquinone], the “cryo-EM structure, 2.5 Å; DCQ modeled in oxidized state at 50% occupancy (shared)” value in assay [4] is on record as “The DCQ density is seen in the more distal Qo1b position, i.e., the same as that of the native MQ”.

For the origin of these results see article PMC12789660, “Mycobacterial respiratory chain enzymes and growth are inhibited by decylubiquinone” (Communications Biology, 2025).
